According to US20080095868A1, “Use of fermented wheat-germ in the feeding and veterinary practice” (priority 2002, published 2008):

System: M. gallisepticum No 1226
Assay: effect against Mycoplasma gallisepticum infection in chickens (Example 6)
Format: in vivo, Mycoplasma gallisepticum; Arbor Acress chickens
Protocol: The investigations were performed with Arbor Acress chickens of meat type free of M. synoviae infection. The freedom from Mycoplasma synoviae of the animals was verified with systematic serological screening examination in an agglutination test by the help of M. gallisepticum and M. synoviae antigens (Intervet International B.V.M.; Boxmeer, The Netherlands). Furthermore, the animals were tested in an ELISA-test based on monoclonal antibodies and with the use of MYGA test-kit (Diagnosztikum Kft; Budapest, Hungary) and MYSA kit (Svanova, Uppsala, Sweden) [Czifra, Gy. et al.: Avian Dis. 37, 680-688 (1993)]. The serological examinations gave negative results. Furthermore, from the same hatching from which the experimental animals derived, isolation of Mycoplasma was tried from the nasal cavity, trachea and air pocket of 20 1 day old chicks using medium B [Erno H., and Stipkovits, L.: Acta Vet. Scand. 14, 436-449 (1973)] and Frey's media [Frey, M. C. et al.: Am. J. Vet. Res. 29, 2164-2171 (1968)]. This cultivation closed with a negative result, too.
For the infection of the experimental animals M. gallisepticum N^o 1226 was employed which had been previously amplified in medium B for 24 hours. The germ content was 9.5×10^8 pfu/ml (pfu=plaque forming unit).
The experimental groups were treated and infected as follows:
Group 1. was located in a 200 litre box which can be fastened down hermetically, into which 10 ml sterile medium B was sprayed, then the animals were kept in this box for 20 minutes.
Group 3. was infected in identical manner as Group 2., then after location in a third room the animals were fed with a chick breeding nutriment containing VET-HBM in 3 g/kg concentration in the course of the experiment.
Group 4. was infected in identical manner as Group 2., then after location in a fourth room the animals were fed with a nutriment containing 200 mg/kg tiamutin (Biochemie GmbH, Kundl, Austria) in the course of the experiment.
To the judgment of the effectiveness of the treatment the following parameters were investigated: clinical symptoms, changes in body weight, feed conversion ratio; in addition to them pathological, histological and serological examinations as well as Mycoplasma re-isolation were performed. In the course of their evaluation the following result were obtained.
At the end of the experiment all the animals were examined by pathological dissection to air-pocket- and peritoneum inflammation characteristic of the M. gallisepticum infection.
The blood plasma of all the chickens was investigated on slide in a M. gallisepticum agglutination test. The severity of the reaction was scored, and the number of respondent animals and the sum of the scores were compared in a Chie square test. The Group 1. remained negative till the end of the experiment. […] (75 scores).
The re-isolation of the infectious Mycoplasma strain was performed as follows. Following of the infection after 1 hour 5-5 animals were killed. 1-1 cm long pieces of trachea were placed into 2 ml liquid medium B, and after 3 minutes of shaking germ counting were performed in the medium. At the end of the experiment re-isolation of the strain used for infection was attempted from the respiratory organs (trachea, lung, air-pocket) and other organs (brain, liver, spleen, kidney, heart) of all the chickens in that manner that samples were carried from every abovementioned organ to solid medium B by the help of a tampon. The agar slants were cultivated for 10 days then they were evaluated. A portion of the isolates was identified with an epifluorescent method using a specific immune serum.

C=C[C@]1(C)C[C@@H](OC(=O)CSCCN(CC)CC)[C@]2(C)[C@H](C)CC[C@]3(CCC(=O)[C@H]32)[C@@H](C)[C@@H]1O [tiamutin]
number of animals exhibiting serological response, M. gallisepticum agglutination test (30 animals per group, non-treated Group 2: 25, VET-HBM 3 g/kg, tiamutin 200 mg/kg): 8
Mycoplasma re-isolation, number of occasions (end of the experiment, Group 2: 64 instances, VET-HBM 3 g/kg, tiamutin 200 mg/kg): 3
clinical symptoms (infected chickens, Group 3 VET-HBM 3 g/kg, Group 4 tiamutin 200 mg/kg in nutriment): no any clinical symptoms
gain in body weight (infected chickens, VET-HBM 3 g/kg, tiamutin 200 mg/kg in nutriment): of same degree as in the control group
feed conversion ratio (infected chickens, VET-HBM 3 g/kg, tiamutin 200 mg/kg, versus control group): remained at the same level
sum of the scores of the serological reaction (non-treated Group 2: 75 scores, VET-HBM 3 g/kg, tiamutin 200 mg/kg): 11
pathological alterations (air-pocket- and peritoneum inflammation) (versus infected non-treated Group 2, VET-HBM 3 g/kg, tiamutin 200 mg/kg): developed significantly more scarcely
histological parameters (lymphohystiocytic bronchitis, lobular interstitial pneumoniae) (versus non-infected Group 1, VET-HBM 3 g/kg, tiamutin 200 mg/kg): remained on the same level as in the Group 1.
